Source: US20240327354A1, “GRAM-NEGATIVE BACTERIA EFFLUX PUMP INHIBITORS” (INSTITUT NATIONAL DE LA SANTÉ ET DE LA RECHERCHE MÉDICALE, priority 2021, published 2024)
Where a name gives a salt, the structure may show the parent alone.

Legend:
E. coli BW25113 [1] = test: Assay 4: boosting of antibiotic activity by EPI example 37 in E. coli; format: cell-based, Escherichia coli; details: MIC of the named antibiotic boosted by 100 μM example 37
Description: (§1) Escherichia coli BW25113 (CGSC 7636) and its derivatives E. coli ΔtolC (JW5503-1, ΔtolC732::kan, CGSC 11430), E. coli ΔacrA (JW0452-3, ΔacrA748::kan, CGSC 11843) and E. coli ΔacrB (JW0451-2, ΔacrB747::kan, CGSC 8609) were obtained from E. coli Genetic Stock Center (CGSC, New Haven, Connecticut) and originated from the Keio Collection (Baba T et al, Mol Sys Biol, 2006). Klebsiella pneumoniae (LMG 2095/ATCC 13883) and K. pneumoniae (ATCC43816), Pseudomonas aeruginosa (PAO1), Acinetobacter baumannii (LMG 1025, ATCC 17978), were obtained from ATCC or BCCM/LMG Bacteria Collection. All bacteria were grown and tested in cation-adjusted Mueller-Hinton broth (CAMHB; BD Difco) at 37° C. For conservation, log phase bacteria were frozen (−80° C.) in CAMHB supplemented with 15% glycerol.
(§2) Measurement of the Impact of EPI Example 37 on the Boosting of Antibiotic Activity in E. coli, A. baumannii, K. pneumoniae and P. aeruginosa.
(§3) Bacterial suspensions were then prepared in CAMHB from a growing pre-culture, (E. coli [OD600=0.001], A. baumannii [OD600=0.001], K. pneumoniae [OD600=0.001] and P. aeruginosa [OD600=0.001]), and added to the microplate using a ViaFill. Microplate containing bacterial cultures were then grown (5 h or 24 h, 37° C.) and bacterial viability determined by either resazurin reduction or OD600.

K. pneumoniae ATCC43816 = test: Assay 4: boosting of antibiotic activity by EPI example 37 in K. pneumoniae ATCC43816; format: cell-based, Klebsiella pneumoniae; details: MIC of the named antibiotic boosted by 100 μM example 37
Description: as §1, §2, §3

K. pneumoniae ATCC13883 = test: Assay 4: boosting of antibiotic activity by EPI example 37 in K. pneumoniae ATCC13883; format: cell-based, Klebsiella pneumoniae; details: MIC of the named antibiotic boosted by 100 μM example 37
Description: as §1, §2, §3

[2] = system: A. baumannii LMG 1025 (ATCC 17978); test: Assay 2: growth inhibition of A. baumannii by sub-inhibitory chloramphenicol in combination with examples (resazurin reduction); format: cell-based, Acinetobacter baumannii; details: read-out: EC90 on A. baumannii with 10 μg/mL of chloramphenicol, 10 μg/mL chloramphenicol, 5 h or 24 h, 37° C.
Description: as §1
Measurement of Growth Inhibition of A. baumannii Strains by Sub Inhibitory Concentrations of Chloramphenicol in Combination with Examples 1-137
(§4) For the evaluation of the dose dependent activity of examples 1-137, their ability to boost the antibacterial activity of sub-inhibitory concentrations chloramphenicol was determined. Briefly, A. baumannii LMG 1025 (ATCC 17978) were diluted from frozen or growing stocks to an OD600 of 0.001 in CAMHB. The bacterial suspension was then used as such (no-antibiotic control to evaluate EPI activity), or spiked with chloramphenicol at a final concentration of 10 μg/mL. Bacteria were then added to microplates carrying serial dilutions of the compounds examples 1-137, and incubated for (5 h or 24 h, 37° C.). Bacterial viability was evaluated using the resazurin reduction assay, and measured by fluorescence (POLARstar Omega, BMG Labtech: Ex: 530 nm Em: 590 nm). […] were defined as the compound concentration that prevented 90% of resazurin turnover compared to the non-treated bacteria.

[3] = system: A. baumannii LMG 1025 (ATCC 17978); test: Assay 3: growth inhibition of A. baumannii by sub-inhibitory novobiocin in combination with examples (resazurin reduction); format: cell-based, Acinetobacter baumannii
Description: as §1
Measurement of growth Inhibition of A. baumannii strains by sub Inhibitory concentrations of novobiocin In combination with examples 1-137
as §4, with “concentrations novobiocin” for “concentrations chloramphenicol”, “such (no—antibiotic” for “such (no-antibiotic”, “with novobiocin” for “with chloramphenicol”, “of 5” for “of 10”

E. coli BW25113 [4] = test: Assay 1: growth inhibition of E. coli by sub-inhibitory pyridomycin in combination with examples (resazurin reduction); format: cell-based, Escherichia coli; details: read-out: EC50 on E. coli with 8 μg/mL of pyridomycin, 8 μg/mL pyridomycin, 5 h, 37° C.
Method in brief: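 E. coli BW25113 at OD600 0.0004–0.001 was grown in CAMHB at 37 °C. Viability was read by resazurin reduction fluorescence (Ex 530/Em 590 nm). EC50 is the concentration preventing 50% of resazurin turnover relative to untreated bacteria.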

[5] = 5 μg/mL novobiocin, 5 h or 24 h, 37° C., read-out: EC90 on A. baumannii with 5 μg/mL of novobiocin

Structure (SMILES)	EC90 [3, 5] [µM]	EC50 (E. coli BW25113 [4]) [µM]	further results
CC1(C)S[C@@H]2[C@H](NC(=O)[C@H](N)c3ccccc3)C(=O)N2[C@H]1C(=O)O [Ampicillin (AMP), Ampicillin]	–	–	E. coli BW25113 Fold Boosted MIC By 100 μM example 37 (E. coli BW25113 [1]): * (* = 2-3.9 fold)
CO/N=C(\C(=O)N[C@@H]1C(=O)N2C(C(=O)[O-])=C(C[N+]3(C)CCCC3)CS[C@H]12)c1csc(N)n1 [Cefepime (CEP), Cefepime]	–	–	K. pneumoniae ATCC43816 Fold Boosted MIC By 100 μM example 37 (K. pneumoniae ATCC43816): * (* = 2-3.9 fold)
O=C(O)c1cn(C2CC2)c2cc(N3CCNCC3)c(F)cc2c1=O [Ciprofloxacin (CIP), Ciprofloxacin]	–	–	K. pneumoniae ATCC13883 Fold Boosted MIC By 100 μM example 37 (K. pneumoniae ATCC13883): *** (*** = 8 fold +); K. pneumoniae ATCC43816 Fold Boosted MIC By 100 μM example 37 (K. pneumoniae ATCC43816): *** (*** = 8 fold +); E. coli BW25113 Fold Boosted MIC By 100 μM example 37 (E. coli BW25113 [1]): *** (*** = 8 fold +)
Brc1cnc(N[C@H]2[C@@H]3CNC[C@@H]32)c2ccccc12 [Example 58, N-[(1R,5S)-3-azabicyclo[3.1.0]hexan-6-yl]-4-bromo-isoquinolin-1-amine;hydrochloride]	100 to 500	5 to 100	EC90 [2]: 100 to 500 µM
NCc1cccc(-c2ccc3nc(N4CCNCC4)c(Cl)cc3c2)c1 [Example 66, [3-(3-chloro-2-piperazin-1-yl-6-quinolyl)phenyl]methanamine;dihydrochloride]	5 to 100	< 5	EC90 [2]: 5 to 100 µM
CNCc1cccc(-c2ccc3nc(N4CCNCC4)c(Cl)cc3c2)c1 [Example 109, 1-[3-(3-chloro-2-piperazin-1-yl-6-quinolyl)phenyl]-N-methyl-methanamine;dihydrochloride]	5 to 100	< 5	EC90 [2]: 5 to 100 µM
NCc1ccccc1-c1ccc2nc(N3CCNCC3)c(Cl)cc2c1 [Example 111, [2-(3-chloro-2-piperazin-1-yl-6-quinolyl)phenyl]methanamine;dihydrochloride]	5 to 100	< 5	–
C[C@H](N)c1cccc(-c2ccc3nc(N4CCNCC4)c(Cl)cc3c2)c1 [Example 112, (1S)-1-[3-(3-chloro-2-piperazin-1-yl-6-quinolyl)phenyl]ethanamine; dihydrochloride]	5 to 100	< 5	–
NCCc1ccc(-c2ccc3nc(N4CCNCC4)c(Cl)cc3c2)cc1 [Example 116, 2-[4-(3-chloro-2-piperazin-1-yl-6-quinolyl)phenyl]ethanamine;dihydrochloride]	5 to 100	< 5	–
Cc1c(CN)cccc1-c1ccc2nc(N3CCNCC3)c(Cl)cc2c1 [Example 117, [3-(3-chloro-2-piperazin-1-yl-6-quinolyl)-2-methyl-phenyl]methanamine;dihydrochloride]	5 to 100	< 5	–
COc1c(CN)cccc1-c1ccc2nc(N3CCNCC3)c(Cl)cc2c1 [Example 118, [3-(3-chloro-2-piperazin-1-yl-6-quinolyl)-2-methoxy-phenyl]methanamine;dihydrochloride]	5 to 100	< 5	–
Cc1ccc(CN)cc1-c1ccc2nc(N3CCNCC3)c(Cl)cc2c1 [Example 119, [3-(3-chloro-2-piperazin-1-yl-6-quinolyl)-4-methyl-phenyl]methanamine;dihydrochloride]	5 to 100	< 5	–
COc1ccc(CN)cc1-c1ccc2nc(N3CCNCC3)c(Cl)cc2c1 [Example 120, [3-(3-chloro-2-piperazin-1-yl-6-quinolyl)-4-methoxy-phenyl]methanamine;dihydrochloride]	5 to 100	< 5	–
NCc1ccc(Cl)c(-c2ccc3nc(N4CCNCC4)c(Cl)cc3c2)c1 [Example 121, [4-chloro-3-(3-chloro-2-piperazin-1-yl-6-quinolyl)phenyl]methanamine;dihydrochloride]	5 to 100	< 5	–
Cc1cc(CN)cc(-c2ccc3nc(N4CCNCC4)c(Cl)cc3c2)c1 [Example 123, [3-(3-chloro-2-piperazin-1-yl-6-quinolyl)-5-methyl-phenyl]methanamine;dihydrochloride]	5 to 100	< 5	–
COc1cc(CN)cc(-c2ccc3nc(N4CCNCC4)c(Cl)cc3c2)c1 [Example 124, [3-(3-chloro-2-piperazin-1-yl-6-quinolyl)-5-methoxy-phenyl]methanamine;dihydrochloride]	5 to 100	< 5	–
NCc1cc(-c2ccc3nc(N4CCNCC4)c(Cl)cc3c2)cc(C(F)(F)F)c1 [Example 125, [3-(3-chloro-2-piperazin-1-yl-6-quinolyl)-5-(trifluoromethyl)phenyl]methanamine;dihydrochloride]	–	< 5	EC90 ([3]; read-out: EC90 on A. baumannii with 5 μg/mL of novobiocin, 5 μg/mL novobiocin, 5 h or 24 h, 37° C.): 5 to 100 µM
Cc1ccc(-c2ccc3nc(N4CCNCC4)c(Cl)cc3c2)cc1CN [Example 126, [5-(3-chloro-2-piperazin-1-yl-6-quinolyl)-2-methyl-phenyl]methanamine;dihydrochloride]	5 to 100	< 5	–
COc1ccc(-c2ccc3nc(N4CCNCC4)c(Cl)cc3c2)cc1CN [Example 127, [5-(3-chloro-2-piperazin-1-yl-6-quinolyl)-2-methoxy-phenyl]methanamine;dihydrochloride]	5 to 100	< 5	–
NCc1cc(-c2ccc3nc(N4CCNCC4)c(Cl)cc3c2)ccc1Cl [Example 128, [2-chloro-5-(3-chloro-2-piperazin-1-yl-6-quinolyl)phenyl]methanamine;dihydrochloride]	5 to 100	< 5	–
NCc1cc(-c2ccc3nc(N4CCNCC4)c(Cl)cc3c2)ccc1C(F)(F)F [Example 129, [5-(3-chloro-2-piperazin-1-yl-6-quinolyl)-2-(trifluoromethyl)phenyl]methanamine;dihydrochloride]	5 to 100	< 5	–
NCc1cc(-c2ccc3nc(N4CCNCC4)c(Cl)cc3c2)ccc1F [Example 130, [5-(3-chloro-2-piperazin-1-yl-6-quinolyl)-2-fluoro-phenyl]methanamine;dihydrochloride]	5 to 100	< 5	EC90 [2]: 5 to 100 µM
Clc1cc2cc(-c3cccc4c3CCNC4)ccc2nc1N1CCNCC1 [Example 133, 3-chloro-2-piperazin-1-yl-6-(1,2,3,4-tetrahydroisoquinolin-5-yl)quinoline;dihydrochloride]	5 to 100	< 5	–
Clc1cc2cc(-c3ccc4c(c3)CNC4)ccc2nc1N1CCNCC1 [Example 135, 3-chloro-6-isoindolin-5-yl-2-piperazin-1-yl-quinoline;dihydrochloride]	5 to 100	< 5	–
CN(C)[C@@H]1C(O)=C(C(N)=O)C(=O)[C@@]2(O)C(O)=C3C(=O)c4c(O)cccc4[C@@](C)(O)[C@H]3C[C@@H]12 [Tetracycline (TET), Tetracycline]	–	–	K. pneumoniae ATCC13883 Fold Boosted MIC By 100 μM example 37 (K. pneumoniae ATCC13883): * (* = 2-3.9 fold); E. coli BW25113 Fold Boosted MIC By 100 μM example 37 (E. coli BW25113 [1]): * (* = 2-3.9 fold)
